Data published in PMC3432147 (Bioorganic & medicinal chemistry letters, 2012).
Values after ≈ are worked out from the molar mass of the structure shown.

Legend:
Solubility in water = type: physicochemical; conditions: for fold improved water solubility compared to alkyl substituted inhibitors (4 or 6): versus compounds 4 or 6
[1] = In vitro metabolic stability in human liver microsomes; conditions: for Stability (% remaining): human liver microsomal protein 0.125 mg, NADPH generating system, 37°C, 60 min, parent by LC-MS/MS, triplicate; for fold improved metabolic stability compared to compound 6: versus compound 6; for fold lower stability compared to compound 13: versus compound 13
Human sEH = molecular target: T1, Human sEH (Homo sapiens, UniProt P34913); assay: Inhibition of human sEH, fluorescent substrate assay; type: biochemical
T1 sequence (P34913 1-555): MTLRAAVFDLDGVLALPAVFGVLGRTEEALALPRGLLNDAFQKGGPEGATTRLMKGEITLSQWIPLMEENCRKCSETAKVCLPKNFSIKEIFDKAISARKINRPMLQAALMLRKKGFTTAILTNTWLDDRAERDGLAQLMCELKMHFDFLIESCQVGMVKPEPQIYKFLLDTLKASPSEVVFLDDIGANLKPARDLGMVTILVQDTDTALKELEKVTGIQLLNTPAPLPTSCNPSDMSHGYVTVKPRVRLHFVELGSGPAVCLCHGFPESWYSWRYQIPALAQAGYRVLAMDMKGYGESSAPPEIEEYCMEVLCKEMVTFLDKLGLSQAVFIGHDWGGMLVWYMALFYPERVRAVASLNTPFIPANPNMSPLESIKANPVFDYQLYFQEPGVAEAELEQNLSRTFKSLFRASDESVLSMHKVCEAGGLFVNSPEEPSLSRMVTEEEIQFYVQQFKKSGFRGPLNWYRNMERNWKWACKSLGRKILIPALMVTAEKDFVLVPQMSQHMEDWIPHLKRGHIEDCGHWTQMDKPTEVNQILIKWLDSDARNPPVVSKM

Row | SMILES | Stability (% remaining) [1] [% remaining] | fold improved metabolic stability compared to compound 6 ([1]; human liver microsomes) [fold] | fold lower stability compared to compound 13 ([1]; human liver microsomes) [fold] | also measured
1 | O=C(O)CCCNC(=O)NC12CC3CC(CC(C3)C1)C2 [Compound 3, 4-(3-adamantan-1-yl-ureido)-butyric acid] | 97 |  |  | solubility at 24 h (Solubility in water; sodium phosphate buffer, pH 7.4): 7 µg/mL (≈ 25 µM); parent acid determined after microsomal incubation ([1]; human liver microsomes): > 95%
2 | CCCCCOC(=O)CCCNC(=O)NC12CC3CC(CC(C3)C1)C2 [Compound 4] | <1 |  |  | metabolism in human liver microsomal incubation ([1]; human liver microsomes): all metabolized to the corresponding butyric acid
3 | CCCCC(C)OC(=O)CCCNC(=O)NC12CC3CC(CC(C3)C1)C2 (stereo not drawn) [Compound 5] |  |  |  | fold improvement in inhibition potency compared to compound 4 (Human sEH; versus compound 4): 2.5 fold
4 | CCCCC(CC)OC(=O)CCCNC(=O)NC12CC3CC(CC(C3)C1)C2 (stereo not drawn) [Compound 6] | 4 |  |  | 
5 | CCCCC(C#N)OC(=O)CCCNC(=O)NC12CC3CC(CC(C3)C1)C2 (stereo not drawn) [Compound 7] |  |  |  | fold decrease in inhibition potency in comparison with methyl (5) or ethyl (6) (Human sEH; versus compounds 5 or 6): 3 fold
6 | CCOCCOCCOC(=O)CCCNC(=O)NC12CC3CC(CC(C3)C1)C2 [Compound 8] | 10 | > 2.5 | 3 | fold reduction in inhibition compared to compounds 4, 5 and 6 (Human sEH; versus compounds 4, 5 and 6): 7–17 fold
7 | CCOCCOCC(OC(=O)CCCNC(=O)NC12CC3CC(CC(C3)C1)C2)c1ccccc1 (stereo not drawn) [Compound 9] | 14 | > 2.5 | ~2 | fold improved water solubility compared to alkyl substituted inhibitors (4 or 6) (Solubility in water): 20–45 fold
8 | O=C(NC1CCCC(C(=O)O)C1)NC12CC3CC(CC(C3)C1)C2 (stereo not drawn) [Compound 10, 3-(3-adamantan-1-yl-ureido)-cyclohexylcarboxylic acid] | 95 |  |  | parent acid determined after microsomal incubation ([1]; human liver microsomes): > 95%
9 | CCCCC(CC)OC(=O)C1CCCC(NC(=O)NC23CC4CC(CC(C4)C2)C3)C1 (stereo not drawn) [Compound 12] | 10 | 2.5 | 3 | 
10 | CCOCCOCC(OC(=O)C1CCCC(NC(=O)NC23CC4CC(CC(C4)C2)C3)C1)c1ccccc1 (stereo not drawn) [Compound 13] | 32 |  |  | fold improved water solubility compared to alkyl substituted inhibitors (4 or 6) (Solubility in water): 20–45 fold; fold improved stability compared to compound 9 ([1]; human liver microsomes, versus compound 9): ~2 fold
